Patent US5707963A, “Methods of using growth inhibitory peptides” (Health Research, Incorporated, priority 1996, dated 1998)
Where “and” joins values, the source holds several entries; their conditions need not be identical. Identical values can stand only once. Like-named read-outs stand apart in the source and are kept apart here.

How the values were obtained:
[1] = test system: mouse mammary tumor 6WI-1; format: in vivo
Procedure: A second assay was also used to assess the percent of inhibition for the various fragments. […] The procedure of Parsons et al. was used in this assay (see Parsons et al., Cancer investigation 4(2):109-126 (1986)). The mouse mammary tumor 6WI-1 normally kills animals within 12-15 days. In this assay, the tumor cells were injected into the body cavity of live mice. […] The inhibition of tumor growth is indicated by percentage. […] Unless otherwise indicated, the dose of peptide or peptide fragment was injected into the body cavity of the mice on day 1 and every day for 15 days. Percent inhibition was measured on day 15.

[2] = test system: hydrocortisone (HC)-stimulated growth of mouse spleen; experiment: In vivo wet weight bioassay, inhibition of HC-stimulated growth of the spleen; conditions: for Percent Growth Inhibition: immature mouse spleen
Procedure: An in vivo wet weight bioassay measuring inhibition of hydrocortisone (HC)-stimulated growth of the spleen was also performed. The procedure of Mizejewski et al. (see previous citations) was used for the wet weight assay. The applicability of the wet weight bioassay for measuring HC-stimulated growth of the spleen is disclosed by el-Fouhil, A. F. and Turkall, R. M., "Effect of alternate-day hydrocortisone therapy on the immunologically immature rat. I: Effect on blood cell count, immunoglobulin concentrations, and body and organ weights", Toxicologic Pathology 21(4):377-382 (1993).
Briefly, the synthesized powdered peptide was reconstituted in saline (1 mg/ml) to form a stock solution of the GIP. The stock solution was appropriately diluted to provide dosages of 500 ng to 100 μg/mouse. 0.1 ml of the appropriately diluted GIP was injected intraperitoneally into 15-18 day old Nya:NYLAR female mice. Control mice were injected with saline. […] 23 hours after the second injection, spleens were dissected, trimmed free of connective tissue and immediately weighed. The spleenic wet weights were normalized to mouse body weight (mg spleenic weight/g of body weight) to compensate for differences in body weight among litters of the same age. Percent inhibition of HC-stimulated spleenic growth was calculated as described by Mizejewski et al. (1983).

[3] = test system: estrogen-stimulated growth of mouse uterus; format: in vivo
[4] = test system: diethylstilbestrol (DES)-stimulated growth of mouse uterus; experiment: In vivo wet weight bioassay, inhibition of DES-stimulated growth of uteri; conditions: for Percent Growth Inhibition: immature mouse uterus
Procedure: An in vivo wet weight bioassay measuring inhibition of diethylstilbestrol (DES)-stimulated growth was also performed. The procedure of Mizejewski et al. (see previous citations) was used for the wet weight assay. The applicability of the wet weight bioassay for measuring DES-stimulated growth of uteri is disclosed by Korach, K. S. et al., "Estrogenic activity in vivo and in vitro of some diethylstilbestrol metabolites and analogs", Proc Natl Acad Sci USA 75:468-471 (1978).
Briefly, the synthesized powdered peptide was reconstituted in saline (1 mg/ml) to form a stock solution of the GIP. The stock solution was appropriately diluted to provide dosages of 10 ng to 100 μg/mouse. 0.1 ml of the appropriately diluted GIP was injected intraperitoneally into 15-18 day old Nya:NYLAR female mice. Control mice were injected with saline. 1 hour after this first injection, a DES challenge of 0.5 micrograms of DES in 0.1 ml saline was given to determine the change in uterine responsiveness to DES resulting from exposure to the first injection. 23 hours after the second injection, uteri were dissected, trimmed free of connective tissue and immediately weighed. The uterine wet weights were normalized to mouse body weight (mg uterine weight/g of body weight) to compensate for differences in body weight among litters of the same age. Percent inhibition of DES-stimulated uterine growth was calculated as described by Mizejewski et al. (1983).

[5] = test system: human MCF-7 breast cancer cells; experiment: In vitro MCF-7 focus assay (estrogen-induced foci formation); format: cell-based; conditions: for Percent Foci Inhibition: MCF-7 Cell Culture
Description: In an in vitro bioassay, the MCF-7 focus assay was used for preliminary evaluation of the GIP preparation for both estrogenicity and antiestrogenicity. One of the major consequences of human estrogen exposure is induction of cell proliferation and subsequent structural rearrangement of the acini, a process based on the interactions of multiple estrogen dependent gene expressions. […] The estrogen dependent MCF-7 cell proliferation is primarily a postconfluent event which leads to development of multicellular aggregates (foci). […] The procedure of Gierthy et al. was used for the MCF-7 assay of the GIP (see Gierthy, J. F. et al., "Correlation of in Vitro and in Vivo Growth Suppression of MCF-7 Human Breast Cancer by 2,3,7,8-Tetrachlorodibenzo-p-dioxin" Cancer Research 53:3149-3153 (1993)).
Briefly, stock MCF-7 cells were suspended in medium (see Gierthy, J. F. et al. 1993) after treatment with trypsin (0.25%) and seeded into 24-well plastic tissue culture plates. The MCF-7 cells were seeded (2 cm^2 /well) at a density of b 10^5 cells/well in 1 ml of medium, and incubated at 37° C. in a humidified atmosphere containing 5% CO2. The cultures were refed at 24 hours and every 4-5 days thereafter with 2 ml medium supplemented with 1×10^-9 M 17β-estradiol, a concentration which induces maximum focus development, and various concentrations of GIP (10^-8 M-10^-13 M) in nonestrogenic DC5 medium and estrogenic DF5 medium which contains high levels of bovine alpha-fetoprotein (5% fetal bovine serum supplemented). After 14 days the cultures were fixed with formalin in pH 7.4 buffer (see Gierthy, J. F. et al. 1993) and stained with 1% rhodamine B. Foci were counted by using an automated colony counter modified to magnify the image of the microscopic multicellular foci. The foci retained the red rhodamine B stain to a greater extent than did surrounding monolayer cells, affording appropriate contrast for enumeration.

## Leu Ser Glu Asp Lys Leu Leu Ala Cys Gly Glu Gly Ala Ala Asp Ile ile Ile Gly His Leu Cys Ile Arg His Glu Met Thr Pro Val Ash Pro Gly Val (LSEDKLLACGEGAADIIIGHLCIRHEMTPVNPGV) [GIP]
[1]; adult mouse, 100 μg per mouse daily for 15 days, 0.3-1.0×10^6 tumor cells per mouse, day 15
  Percent Growth Inhibition: 97%
[1]; adult mouse, 100 μg per mouse daily for 15 days, 1.1-4.0×10^6 tumor cells per mouse, day 15
  Percent Growth Inhibition: 79%
[1]; adult mouse, 1.1-4.0 × 10^6 tumor cells mixed with 100 μg of the peptide, injected only on day 1
  Percent Growth Inhibition: 85%
[1]; immature mouse, 1000 μg per mouse daily for 15 days, 0.3-1.0×10^6 tumor cells per mouse, day 15
  Percent Growth Inhibition: 57%
[1]; immature mouse, 1000 μg per mouse daily for 15 days, 1.1-4.0×10^6 tumor cells per mouse, day 15
  Percent Growth Inhibition: 49%
[2]; 500 ng to 100 μg/mouse
  inhibition of HC-induced growth (range over Table 4): 24-100%
[2]; 1.0 μg per mouse
  Percent Growth Inhibition: 100%
[2]; 10.0 μg per mouse
  Percent Growth Inhibition: 76%
[2]; 100 μg per mouse, 1.0 μg of HC instead of 0.5 μg
  Percent Growth Inhibition: 24% and 34%
[2]; 100 μg per mouse, HC 0.5 micrograms
  Percent Growth Inhibition: 67%
[2]; immature spleen, produced 100% growth inhibition
  most effective dose: 1.0 μg/mouse
[3]; adult cycling mice, with and without addition of purified human full-length AFP
  activity in adult cycling mice: active
[3]; adult mouse uterus, 25 ng per mouse
  Percent Growth Inhibition: 66%
[3]; adult mouse uterus, 100 ng per mouse, added human AFP
  Percent Growth Inhibition: 79%
[3]; adult mouse uterus, peptide diluted 2,000-fold or more
  inhibition of estrogen-stimulated growth: 80%
[4]; 10ng to 100 μg/mouse
  inhibition of DES-induced growth (range over Table 3): 14-27%
[4]; 10 ng per mouse
  Percent Growth Inhibition: 27%
[4]; 100 ng per mouse
  Percent Growth Inhibition: 25%
[4]; 800 ng per mouse i.p., DES 0.5 micrograms
  Percent Growth Inhibition: 18%
[4]; 1 μg per mouse
  Percent Growth Inhibition: 22%
[4]; 10 μg per mouse
  Percent Growth Inhibition: 20%
[4]; 100 μg per mouse
  Percent Growth Inhibition: 14%
[4]; immature uterus, produced 27% growth inhibition
  most effective dose: 10 ng/mouse
[5]; 10^-10 to 10^-13 M peptide concentration
  inhibition in the MCF-7 cell culture assays: 60-70%
[5]; 14 days
  Percent Foci Inhibition: 60-70%
[5]; peptide molarity 10^-11 -10^-13, 14 days
  Percent Foci Inhibition: 60-74% and 50-60%
[5]; peptide molarity 10^-12, added human AFP
  Percent Foci Inhibition: 40%
[5]; estrogenic DF5 medium, GIP 10^-10 to 10^-13 M
  maximum inhibition of DF5 induced foci development: 74%
[5]; nonestrogenic DC5 medium, dose responsive
  concentration at which estrogenic foci induction starts: 10^-8 M
